According to patent US20170334899A1, “AMINO-SUBSTITUTED ISOTHIAZOLES” (Bayer Pharma Aktiengesellschaft, priority 2014, published 2017):

These compounds were tested against T1, human kinase Mps-1 (Homo sapiens, UniProt P33981) (assay: Mps-1 kinase assay (TR-FRET)). Settings: Mps-1 TR-FRET kinase assay; avg; read-out: Mps1 avg (IC50 [mol/l]).
T1 construct: N-terminally GST-tagged human full length recombinant Mps-1 kinase; GST (N); purchased Invitrogen, Karslruhe, Germany PV4071
T1 sequence (P33981 1-857): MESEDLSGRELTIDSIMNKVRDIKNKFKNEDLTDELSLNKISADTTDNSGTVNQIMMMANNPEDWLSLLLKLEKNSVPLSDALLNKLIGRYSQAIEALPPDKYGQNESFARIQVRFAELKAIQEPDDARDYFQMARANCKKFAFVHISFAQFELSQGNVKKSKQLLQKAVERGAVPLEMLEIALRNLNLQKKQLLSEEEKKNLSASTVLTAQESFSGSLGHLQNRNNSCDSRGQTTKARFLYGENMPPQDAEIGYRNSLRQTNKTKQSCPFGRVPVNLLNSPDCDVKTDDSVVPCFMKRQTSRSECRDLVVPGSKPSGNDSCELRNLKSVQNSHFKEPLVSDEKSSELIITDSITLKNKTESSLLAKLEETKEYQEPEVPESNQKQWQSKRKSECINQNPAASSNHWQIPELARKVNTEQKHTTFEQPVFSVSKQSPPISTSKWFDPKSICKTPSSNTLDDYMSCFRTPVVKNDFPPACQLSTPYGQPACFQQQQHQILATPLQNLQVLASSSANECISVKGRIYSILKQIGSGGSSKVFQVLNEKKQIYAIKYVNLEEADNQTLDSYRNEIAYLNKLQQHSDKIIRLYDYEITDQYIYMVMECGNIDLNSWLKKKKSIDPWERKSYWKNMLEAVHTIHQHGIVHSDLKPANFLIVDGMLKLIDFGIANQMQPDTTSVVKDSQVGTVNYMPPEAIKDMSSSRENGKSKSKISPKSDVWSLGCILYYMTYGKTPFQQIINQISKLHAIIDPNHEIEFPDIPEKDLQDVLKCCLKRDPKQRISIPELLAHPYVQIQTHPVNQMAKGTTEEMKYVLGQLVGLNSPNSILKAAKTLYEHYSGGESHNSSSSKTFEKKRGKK
Format: biochemical
Outline: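 GST-tagged full-length recombinant human Mps-1 (~0.5 nM) pre-incubated 15 min with compound, then reacted 60 min at 22 °C with 10 μM ATP and 1 μM biotinylated peptide in Hepes pH 7.7 buffer. EDTA-stopped; TR-FRET (Eu anti-phospho-Ser/Thr to SA-XLent) 665/620 nm ratio normalised to no-inhibitor and no-enzyme controls.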

SMILES | IC50
Cc1nsc(Nc2cnc(C(F)(F)F)cn2)c1C(=O)Nc1ccc(OCCCN(C)CC(F)(F)F)nc1 [Example 354, 3-methyl-N-(6-{3-[methyl(2,2,2-trifluoroethyl)amino]propoxy}pyridin-3-yl)-5-{[5-(trifluoromethyl)pyrazin-2-yl]amino}-1,2-thiazole-4-carboxamide] | ≥ 20 µM
Cc1nsc(Nc2cnc(C(F)(F)F)cn2)c1C(=O)Nc1ccc(OCCCN(C)CCC(F)(F)F)nc1 [Example 355, 3-methyl-N-(6-{3-[methyl(3,3,3-trifluoropropyl)amino]propoxy}pyridin-3-yl)-5-{[5-(trifluoromethyl)pyrazin-2-yl]amino}-1,2-thiazole-4-carboxamide] | ≥ 20 µM
Cc1nsc(Nc2cnc(C(F)(F)F)cn2)c1C(=O)Nc1ccc(CCC2CCN(CC(F)F)CC2)nc1 [Example 356, N-(6-{2-[1-(2,2-difluoroethyl)piperidin-4-yl]ethyl}pyridin-3-yl)-3-methyl-5-{[5-(trifluoromethyl)pyrazin-2-yl]amino}-1,2-thiazole-4-carboxamide] | > 20 µM
Cc1nsc(Nc2cnc(C(F)(F)F)cn2)c1C(=O)Nc1ccc(C2CCN(CC(F)F)CC2)nc1 [Example 357, N-{6-[1-(2,2-difluoroethyl)piperidin-4 yl]pyridin-3-yl}-3-methyl-5-{[5-(trifluoromethyl)pyrazin-2-yl]amino}-1,2-thiazole-4-carboxamide] | > 20 µM
Cc1nsc(Nc2cnc(C(F)(F)F)cn2)c1C(=O)Nc1ccc(C2CCN(CC(F)(F)F)CC2)nc1 [Example 358, 3-methyl-N-{6-[1-(2,2,2-trifluoroethyl)piperidin-4-yl]pyridin-3-yl}-5-{[5-(trifluoromethyl)pyrazin-2-yl]amino}-1,2-thiazole-4-carboxamide] | > 20 µM
Cc1nsc(Nc2cnc(C(F)(F)F)cn2)c1C(=O)Nc1ccc(N2CCN(CC(F)F)CC2)nc1 [Example 359, N-{6-[4-(2,2-difluoroethyl)piperazin-1-yl]pyridin-3-yl}-3-methyl-5-{[5-(trifluoromethyl)pyrazin-2-yl]amino}-1,2-thiazole-4-carboxamide] | > 20 µM

The remaining lines, values ahead:

IC50 | SMILES
> 20 µM | Cc1nsc(Nc2cnc(C(F)(F)F)cn2)c1C(=O)Nc1ccc(N2CCN(CC(F)(F)F)CC2)nc1 [Example 360, 3-methyl-N-{6-[4-(2,2,2-trifluoroethyl)piperazin-1-yl]pyridin-3-yl}-5-{[5-(trifluoromethyl)pyrazin-2-yl]amino}-1,2-thiazole-4-carboxamide]
> 20 µM | Cc1nsc(Nc2cnc(C(F)(F)F)cn2)c1C(=O)Nc1ccc(N2CCN(CCC(F)(F)F)CC2)nc1 [Example 361, 3-methyl-5-{[5-(trifluoromethyl)pyrazin-2-yl]amino}-N-{6-[4-(3,3,3-trifluoropropyl)piperazin-1-yl]pyridin-3-yl}-1,2-thiazole-4-carboxamide]
> 20 µM | Cc1nsc(Nc2cnc(C(F)(F)F)cn2)c1C(=O)Nc1ccc(O[C@H]2CCN(CC(F)F)C[C@@H]2F)nc1 [Example 362]
> 20 µM | Cc1nsc(Nc2cnc(C(F)(F)F)cn2)c1C(=O)Nc1ccc(O[C@H]2CCN(CC(F)(F)F)C[C@@H]2F)nc1 [Example 363, N-(6-{[(3S,4S)-3-fluoro-1-(2,2,2-trifluoroethyl)piperidin-4-yl]oxy}pyridin-3-yl)-3-methyl-5-{[5-(trifluoromethyl)pyrazin-2-yl]amino}-1,2-thiazole-4-carboxamide]
> 20 µM | Cc1nsc(Nc2cnc(C(F)(F)F)cn2)c1C(=O)Nc1ccc(O[C@H]2CCN(CCC(F)(F)F)C[C@@H]2F)nc1 [Example 364, N-(6-{[(3S,4S)-3-fluoro-1-(3,3,3-trifluoropropyl)piperidin-4-yl]oxy}pyridin-3-yl)-3-methyl-5-{[5-(trifluoromethyl)pyrazin-2-yl]amino}-1,2-thiazole-4-carboxamide]
